# Experimental data reported in ChEMBL document CHEMBL4823291, “Discovery of 5,6,7,8-tetrahydropyrido[3,4-d]pyrimidine derivatives as novel selective Axl inhibitors” (Bioorg Med Chem Lett, 2021).
# pIC50: −log10 of the molar value.
# Key:
# [1] = molecular target: T1, Tyrosine-protein kinase Mer (Mus musculus, UniProt Q60805); assay: Inhibition of Mer in mouse BaF3 cells; assay type: cell-based
# T1 sequence (Q60805 whole entry): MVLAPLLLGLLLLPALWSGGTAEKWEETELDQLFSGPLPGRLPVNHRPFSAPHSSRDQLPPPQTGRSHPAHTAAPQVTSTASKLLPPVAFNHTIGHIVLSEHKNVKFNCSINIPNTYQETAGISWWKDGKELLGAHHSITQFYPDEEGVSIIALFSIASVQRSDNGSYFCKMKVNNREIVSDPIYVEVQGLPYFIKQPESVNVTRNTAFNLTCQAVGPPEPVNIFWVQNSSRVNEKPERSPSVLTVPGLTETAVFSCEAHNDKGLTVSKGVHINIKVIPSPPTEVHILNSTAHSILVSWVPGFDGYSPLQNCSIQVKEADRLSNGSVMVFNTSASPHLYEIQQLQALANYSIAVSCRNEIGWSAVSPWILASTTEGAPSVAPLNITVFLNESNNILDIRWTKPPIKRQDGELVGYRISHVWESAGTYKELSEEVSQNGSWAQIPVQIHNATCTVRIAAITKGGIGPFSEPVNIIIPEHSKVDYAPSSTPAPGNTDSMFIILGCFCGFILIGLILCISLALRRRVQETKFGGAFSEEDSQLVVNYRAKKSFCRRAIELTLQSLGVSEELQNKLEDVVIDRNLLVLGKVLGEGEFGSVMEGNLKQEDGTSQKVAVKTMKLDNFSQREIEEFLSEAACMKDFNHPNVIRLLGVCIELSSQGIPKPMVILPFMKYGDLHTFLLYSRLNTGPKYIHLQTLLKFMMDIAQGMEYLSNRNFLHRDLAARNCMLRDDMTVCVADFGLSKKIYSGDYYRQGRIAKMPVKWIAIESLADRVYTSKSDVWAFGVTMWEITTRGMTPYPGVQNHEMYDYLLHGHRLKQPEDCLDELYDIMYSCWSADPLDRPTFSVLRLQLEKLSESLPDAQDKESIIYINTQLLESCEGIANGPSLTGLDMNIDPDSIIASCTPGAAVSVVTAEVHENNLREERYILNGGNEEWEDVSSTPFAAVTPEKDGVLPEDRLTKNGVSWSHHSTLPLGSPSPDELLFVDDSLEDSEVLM
# [2] = molecular target: T2, Tyrosine-protein kinase Mer (Homo sapiens, UniProt Q12866); assay: Inhibition of Mer (unknown origin) by cell free assay
# T2 sequence (Q12866 whole entry): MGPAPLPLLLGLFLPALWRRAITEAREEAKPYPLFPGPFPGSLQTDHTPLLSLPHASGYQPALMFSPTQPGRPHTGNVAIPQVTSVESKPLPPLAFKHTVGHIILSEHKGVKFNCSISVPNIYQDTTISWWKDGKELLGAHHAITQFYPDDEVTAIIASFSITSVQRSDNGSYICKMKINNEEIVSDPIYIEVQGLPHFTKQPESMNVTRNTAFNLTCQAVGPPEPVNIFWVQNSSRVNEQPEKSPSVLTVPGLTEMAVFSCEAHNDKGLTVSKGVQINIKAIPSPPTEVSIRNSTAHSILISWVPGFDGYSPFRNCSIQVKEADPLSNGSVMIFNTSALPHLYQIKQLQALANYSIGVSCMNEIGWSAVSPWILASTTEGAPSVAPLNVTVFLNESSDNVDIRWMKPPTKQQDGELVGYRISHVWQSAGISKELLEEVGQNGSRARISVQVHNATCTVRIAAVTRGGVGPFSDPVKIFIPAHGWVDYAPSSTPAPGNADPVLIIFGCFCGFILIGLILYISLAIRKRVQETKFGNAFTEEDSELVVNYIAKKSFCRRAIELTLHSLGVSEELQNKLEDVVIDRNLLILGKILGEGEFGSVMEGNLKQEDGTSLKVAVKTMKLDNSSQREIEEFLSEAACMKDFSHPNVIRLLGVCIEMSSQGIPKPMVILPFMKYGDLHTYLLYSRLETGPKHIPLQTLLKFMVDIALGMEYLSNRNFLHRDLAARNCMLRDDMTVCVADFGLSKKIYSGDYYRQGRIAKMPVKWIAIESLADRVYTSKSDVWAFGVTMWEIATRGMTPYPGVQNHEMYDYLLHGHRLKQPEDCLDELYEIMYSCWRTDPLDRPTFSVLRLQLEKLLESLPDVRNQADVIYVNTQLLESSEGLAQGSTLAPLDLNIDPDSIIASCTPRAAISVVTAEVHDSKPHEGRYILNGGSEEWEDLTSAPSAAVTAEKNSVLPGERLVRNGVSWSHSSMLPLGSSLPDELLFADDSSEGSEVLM
# [3] = molecular target: T3, Tyrosine-protein kinase receptor UFO (Homo sapiens, UniProt P30530); assay: Inhibition of Axl (unknown origin) by cell free assay
# T3 sequence (P30530 whole entry): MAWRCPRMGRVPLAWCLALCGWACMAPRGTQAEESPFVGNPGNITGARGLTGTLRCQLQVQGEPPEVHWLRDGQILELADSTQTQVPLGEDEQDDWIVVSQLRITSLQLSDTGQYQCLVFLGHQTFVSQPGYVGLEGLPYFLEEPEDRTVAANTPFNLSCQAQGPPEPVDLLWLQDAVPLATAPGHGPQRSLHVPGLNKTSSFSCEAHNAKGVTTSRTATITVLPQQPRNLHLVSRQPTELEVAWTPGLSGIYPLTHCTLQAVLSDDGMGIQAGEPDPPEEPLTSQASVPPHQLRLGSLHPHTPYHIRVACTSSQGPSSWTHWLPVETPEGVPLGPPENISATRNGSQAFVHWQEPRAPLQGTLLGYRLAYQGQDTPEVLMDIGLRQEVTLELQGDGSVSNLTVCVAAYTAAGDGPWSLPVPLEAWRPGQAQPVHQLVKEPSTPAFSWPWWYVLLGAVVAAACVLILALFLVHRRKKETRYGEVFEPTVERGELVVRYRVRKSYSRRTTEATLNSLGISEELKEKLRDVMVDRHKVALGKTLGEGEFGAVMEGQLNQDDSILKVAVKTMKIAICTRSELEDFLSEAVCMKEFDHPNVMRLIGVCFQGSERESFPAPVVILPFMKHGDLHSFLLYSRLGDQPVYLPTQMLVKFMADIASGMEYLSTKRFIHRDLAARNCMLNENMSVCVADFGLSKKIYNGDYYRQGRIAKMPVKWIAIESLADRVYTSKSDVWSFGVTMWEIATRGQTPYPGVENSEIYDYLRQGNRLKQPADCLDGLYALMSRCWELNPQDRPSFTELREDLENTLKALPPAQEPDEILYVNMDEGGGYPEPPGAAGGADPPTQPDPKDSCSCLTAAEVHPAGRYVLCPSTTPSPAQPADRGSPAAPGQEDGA
# Homo sapiens = organism: Homo sapiens; assay: Ratio of IC50 for Mer (unknown origin) to IC50 for Axl (unknown origin)
# [4] = molecular target: T4, Tyrosine-protein kinase receptor UFO (Mus musculus, UniProt Q00993); assay: Inhibition of Axl in mouse BaF3 cells; assay type: cell-based
# T4 sequence (Q00993 whole entry): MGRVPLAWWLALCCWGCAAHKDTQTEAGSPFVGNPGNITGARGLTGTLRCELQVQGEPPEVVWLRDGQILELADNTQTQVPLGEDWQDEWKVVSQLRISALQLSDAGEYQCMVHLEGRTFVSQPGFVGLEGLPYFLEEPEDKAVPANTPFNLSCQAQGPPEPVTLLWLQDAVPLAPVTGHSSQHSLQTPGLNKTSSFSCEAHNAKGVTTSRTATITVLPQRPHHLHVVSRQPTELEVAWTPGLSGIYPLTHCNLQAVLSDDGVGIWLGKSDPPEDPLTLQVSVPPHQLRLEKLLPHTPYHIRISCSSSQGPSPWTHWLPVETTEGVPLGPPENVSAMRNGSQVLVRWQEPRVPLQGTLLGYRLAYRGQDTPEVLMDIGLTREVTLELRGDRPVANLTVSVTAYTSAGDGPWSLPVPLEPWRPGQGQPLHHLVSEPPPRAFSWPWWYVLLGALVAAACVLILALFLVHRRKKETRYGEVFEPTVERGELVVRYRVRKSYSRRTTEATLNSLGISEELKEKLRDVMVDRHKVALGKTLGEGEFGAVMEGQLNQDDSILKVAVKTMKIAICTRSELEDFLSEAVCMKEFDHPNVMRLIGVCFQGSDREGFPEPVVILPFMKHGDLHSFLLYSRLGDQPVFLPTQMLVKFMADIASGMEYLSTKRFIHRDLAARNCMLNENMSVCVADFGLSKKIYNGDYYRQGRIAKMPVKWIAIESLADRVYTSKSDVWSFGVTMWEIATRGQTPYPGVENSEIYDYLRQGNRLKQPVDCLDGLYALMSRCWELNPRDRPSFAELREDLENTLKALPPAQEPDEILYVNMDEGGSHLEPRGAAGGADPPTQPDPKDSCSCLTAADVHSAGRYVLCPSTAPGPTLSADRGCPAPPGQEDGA
# BaF3 = assay: Ratio of IC50 for Mer in mouse BaF3 cells to IC50 for Axl in mouse BaF3 cells; assay type: cell-based
pIC50 [1],pIC50 [2],pIC50 [3],Ratio IC50 (Homo sapiens),pIC50 [4],SMILES,Ratio IC50 (BaF3)
6.24,6.28,8.18,80,6.96,CC(C)n1cc(C(=O)Nc2ccc(Oc3ncnc4c3CCN(C)C4)c(F)c2)c(=O)n(-c2ccc(F)cc2)c1=O,–
6.09,6.57,7.19,4.2,6.82,CC(C)n1cc(C(=O)Nc2ccc(Oc3ncnc4c3CN(C)CC4)c(F)c2)c(=O)n(-c2ccc(F)cc2)c1=O,4.2
6.54,6.62,8.11,31,7.13,CC(C)n1cc(C(=O)Nc2ccc(Oc3ncnc4c3CCN(C(=O)CCN3CCCC3)C4)c(F)c2)c(=O)n(-c2ccc(F)cc2)c1=O,3.9
7.47,7.29,8.57,19,8.10,CN1CCC(CN2CCc3c(ncnc3Oc3ccc(NC(=O)c4cn(C5CCCC5)c(=O)n(-c5ccc(F)cc5)c4=O)cc3F)C2)CC1,4.3
6.96,7.48,8.22,5.5,7.38,CC(C)n1cc(C(=O)Nc2ccc(Oc3ncnc4c3CN(C(=O)CN3CCN(C)CC3)C4)c(F)c2)c(=O)n(-c2ccc(F)cc2)c1=O,2.6
6.36,< 6.00,8.28,> 189,7.00,CC(C)n1cc(C(=O)Nc2ccc(Oc3ncnc4c3CCN(C(=O)C3CCC3)C4)c(F)c2)c(=O)n(-c2ccc(F)cc2)c1=O,4.4
6.55,7.12,7.59,2.9,7.08,CC(C)n1cc(C(=O)Nc2ccc(Oc3ncnc4c3CC(=O)N4)c(F)c2)c(=O)n(-c2ccc(F)cc2)c1=O,2.9
7.47,> 8.39,8.57,< 1.5,7.92,CC(C)n1cc(C(=O)Nc2ccc(Oc3ncnc4c3CN(C(=O)C3CC3)C4)c(F)c2)c(=O)n(-c2ccc(F)cc2)c1=O,2.8
7.41,> 8.39,8.47,< 1.2,7.77,CC(C)n1cc(C(=O)Nc2ccc(Oc3ncnc4c3CN(C(=O)CC3CCN(C)CC3)C4)c(F)c2)c(=O)n(-c2ccc(F)cc2)c1=O,2.3
7.10,7.16,8.21,11,7.49,CC(C)n1cc(C(=O)Nc2ccc(Oc3ncnc4c3CN(CC3CCN(C)CC3)C4)c(F)c2)c(=O)n(-c2ccc(F)cc2)c1=O,2.5
6.43,6.68,8.02,22,7.11,CC(C)n1cc(C(=O)Nc2ccc(Oc3ncnc4c3CCN(CC(=O)N3CCN(C)CC3)C4)c(F)c2)c(=O)n(-c2ccc(F)cc2)c1=O,4.7
5.59,< 6.00,7.66,> 45,6.66,CC(C)n1cc(C(=O)Nc2ccc(Oc3ncnc4c3CN(C)C4)c(F)c2)c(=O)n(-c2ccc(F)cc2)c1=O,–
7.11,7.13,8.43,20,7.82,CC(C)n1cc(C(=O)Nc2ccc(Oc3ncnc4c3CCN(CC3CCN(C)CC3)C4)c(F)c2)c(=O)n(-c2ccc(F)cc2)c1=O,5.2
6.82,7.06,8.37,20,7.54,CC(C)n1cc(C(=O)Nc2ccc(Oc3ncnc4c3CCN(C(=O)CC3CCN(C)CC3)C4)c(F)c2)c(=O)n(-c2ccc(F)cc2)c1=O,5.2
6.14,6.64,7.80,14,6.57,CC(C)n1cc(C(=O)Nc2ccc(Oc3ncnc4c3CN(C(=O)CN3CCOCC3)C4)c(F)c2)c(=O)n(-c2ccc(F)cc2)c1=O,2.7
